From patent US12655130B2 (ASSEMBLY BIOSCIENCES, INC., priority 2020, dated 2026)
Where two headings read alike, the source gives them in different places.

System: HBV viral load (viral production from HepAD38 cells)
Experiment: Activity of test compounds on viral production from HepAD38 cells (viral load by qPCR of HBV core sequence)
Format: cell-based
Conditions: viral load lowering, 5 days, qPCR of supernatant, read-out: VL HepAD38 EC50 range
Procedure: Assay Measuring Activity of Test Compounds on Viral Production from HepAD38 Cells
HepAD38 cells grown in a T-150 flask (Corning, cat #: 430825) with Growth Medium (DMEM/F12 (1:1) (Hyclone, cat #: SH30023.02), 1× Pen/Strep (Invitrogen, cat #: 15140-122), 10% FBS (Tissue Culture Biologics, cat #: 101), 250 μg/mL G418 (Alfa Aesar, cat #: J62671), 1 μg/mL Tetracycline (Teknova, cat #: T3320)) were detached with 0.25% trypsin-EDTA (Invitrogen, cat #: 25200-056). Tetracycline-free treatment medium (15 mL DMEM/F12 (1:1) 1× Pen/step, with 2% FBS, Tet-system approved (Clontech, cat #: 631106) were then added to mix, transferred into a 50 ml conical tube (Falcon, cat #: 21008-918) and spun at 1300 rpm for 5 min. Pelleted cells were then re-suspended/washed with 50 mL of 1×DPBS (Invitrogen, cat #: 14190-136) 2 times and 50 mL treatment medium twice. HepAD38 cells were then re-suspended with 10 mL of treatment medium, syringed and counted. Wells of 96-well clear bottom TC plate (Corning, cat #: 3904) were seeded at 50,000 cells/well in 180 μL of treatment medium, and 20 μL of either 10% DMSO (Sigma, cat #: D4540) as controls or a 10× solution of test compounds in 10% DMSO in treatment media was added for a final compound concentration starting at 10 μM, and plates were incubated in 5% CO2 incubator at 37° C. for 5 days.
Subsequently viral load production was assayed by quantitative PCR (qPCR) of the HBV core sequence. PCR reaction mixture containing forward primers HBV-f 5′-CTGTGCCTTGGGTGGCITT-3′ (IDT DNA), Reverse primers HBV-r 5′-[…]-3′ (IDT DNA), Fluorescent TaqMan™ Probes HBV-probe 5′-FAM/AGCTCCAAA/ZENMITCTITATAAGGGTCGATGTC/3IABkFQ-3′ (IDT DNA), 10 μL/well of PerfeCTa® qPCR ToughMix® (Quanta Biosciences, Cat #: 95114-05K), and 6 μL/well of DEPC water (Alfa Aesar, cat #: J62087) was prepared. Four μL of supernatant was added to 16 μL of the reaction mixture in a qPCR plate (Applied Biosytems, Cat #: 4309849), sealed with a film (Applied Biosystems, Cat #: 4311971), centrifuged for a few seconds, and subsequently run on an Applied Biosystems VIIA7. The PCR mixture was incubated at 45° C. for 5 min, then 95° C. for 10 min, followed by 40 cycles of 10 seconds at 95° C. and 20 seconds at 60° C. Viral load was quantified against known HBV DNA standards by using ViiA™ 7 Software. Viral load in the supernatant from wells with treated cells were compared against viral load in supernatant from DMSO control wells (3 per plate). Cell viability assay was performed with CellTiter-Glo Luminescent Cell Viability Assay (Promega, cat #: G7573) with modification. Mixed appropriate amount of CellTiter-Glo (CTG) 1×DPBS in a 1:1 ratio, added 100 uL of the mixture to each well followed completely removal of all supernatant in each well without touching cell surface. Incubated the plate at room temperature for 10 min on an orbital shaker, and then read the plate with a plate reader (TECAN M1000 or Envision). EC50 or CC50 values were calculated through curve-fitting of the four-parameter nonlinear-logistic-regression model (GraphPad Prism or Dotmatics). CC50 values were all >10 μM.

[1] = Hepatitis B virus, HePAD38, 120 h

## Cn1cnc(C2CC3CC(=O)CC3C2)c1C(=O)Nc1ccc(F)c(Cl)c1 (single isomer, unassigned) [Example 1, N-(3-Chloro-4-fluorophenyl)-1-methyl-4-(5-oxooctahydropentalen-2-yl)-1H-imidazole-5-carboxamide]
[1]
  EC50: < 10 nM

## Cn1cnc(C2CC3CC(O)CC3C2)c1C(=O)Nc1ccc(F)c(Cl)c1 (single isomer, unassigned) [Example 2, N-(3-Chloro-4-fluorophenyl)-4-(5-hydroxyoctahydropentalen-2-yl)-1-methyl-1H-imidazole-5-carboxamide]
[1]
  EC50: < 10 nM

## Cn1cnc(C2CC3CC(O)(CS(C)(=O)=O)CC3C2)c1C(=O)Nc1ccc(F)c(Cl)c1 (single isomer, unassigned) [Example 3, N-(3-Chloro-4-fluorophenyl)-4-(5-hydroxy-5-((methylsulfonyl)methyl)octahydropentalen-2-yl)-1-methyl-1H-imidazole-5-carboxamide]
[1]
  EC50: < 10 nM

## Cn1cnc(C2(O)CC3CC(c4ncn(C)c4C(=O)Nc4ccc(F)c(Cl)c4)CC3C2)c1 (single isomer, unassigned) [Example 4, N-(3-Chloro-4-fluorophenyl)-4-(5-hydroxy-5-(1-methyl-1H-imidazol-4-yl)octahydropentalen-2-yl)-1-methyl-1H-imidazole-5-carboxamide]
[1]
  EC50: < 10 nM

## Cn1ccnc1C1(O)CC2CC(c3ncn(C)c3C(=O)Nc3ccc(F)c(Cl)c3)CC2C1 (single isomer, unassigned) [Example 5, N-(3-Chloro-4-fluorophenyl)-4-(5-hydroxy-5-(1-methyl-1H-imidazol-2-yl)octahydropentalen-2-yl)-1-methyl-1H-imidazole-5-carboxamide]
[1]
  EC50: < 10 nM

## Cn1cnc(C2CC3CC(O)(CO)CC3C2)c1C(=O)Nc1ccc(F)c(Cl)c1 (single isomer, unassigned) [Example 19, N-(3-Chloro-4-fluorophenyl)-4-(5-hydroxy-5-(hydroxymethyl)octahydro-pentalen-2-yl)-1-methyl-1H-imidazole-5-carboxamide]
[1]
  EC50: < 10 nM

## Cn1cnc(C2CC3CC(O)(CO)CC3C2)c1C(=O)Nc1ccc(F)c(Cl)c1 (single isomer, unassigned) [Example 20, N-(3-Chloro-4-fluorophenyl)-4-(5-hydroxy-5-(hydroxymethyl)octahydro-pentalen-2-yl)-1-methyl-1H-imidazole-5-carboxamide]
  EC50: < 10 nM

## Cc1nc(C2CC3CC(O)(c4nccn4C)CC3C2)c(C(=O)Nc2ccc(F)c(Cl)c2)n1C (single isomer, unassigned) [Example 27, N-(3-Chloro-4-fluorophenyl)-4-(5-hydroxy-5-(1-methyl-1H-imidazol-2-yl)octahydropentalen-2-yl)-1,2-dimethyl-1H-imidazole-5-carboxamide]
[1]
  EC50: < 10 nM

## O=C(Nc1ccc(F)c(Cl)c1)c1c(C2CC3CC(O)CC3C2)nc2n1CCC2 (single isomer, unassigned) [Example 32, N-(3-Chloro-4-fluorophenyl)-2-(5-hydroxyoctahydropentalen-2-yl)-6,7-dihydro-5H-pyrrolo[1,2-a]imidazole-3-carboxamide]
[1]
  EC50: 10 to 50 nM

## O=C(Nc1ccc(F)c(Cl)c1)c1c(C2CC3CC(O)CC3C2)nc2n1CCC2 (single isomer, unassigned) [Example 33, N-(3-Chloro-4-fluorophenyl)-2-(5-hydroxyoctahydropentalen-2-yl)-6,7-dihydro-5H-pyrrolo[1,2-a]imidazole-3-carboxamide]
  EC50: < 10 nM

## O=C(Nc1ccc(F)c(Cl)c1)c1c(C2CC3CC(O)(C(F)(F)F)CC3C2)nc2n1CCC2 (single isomer, unassigned) [Example 34, N-(3-Chloro-4-fluorophenyl)-2-(5-hydroxy-5-(trifluoromethyl)octahydropentalen-2-yl)-6,7-dihydro-5H-pyrrolo[1,2-a]imidazole-3-carboxamide]
[1]
  EC50: 10 to 50 nM

## CS(=O)(=O)CC1(O)CC2CC(c3nc4n(c3C(=O)Nc3ccc(F)c(Cl)c3)CCC4)CC2C1 (single isomer, unassigned) [Example 35, N-(3-Chloro-4-fluorophenyl)-2-(5-hydroxy-5-((methylsulfonyl)methyl)octahydropentalen-2-yl)-6,7-dihydro-5H-pyrrolo[1,2-a]imidazole-3-carboxamide]
[1]
  EC50: < 10 nM

## Cn1cnc(C2CC3CC(NC4CC4)CC3C2)c1C(=O)Nc1ccc(F)c(Cl)c1 (single isomer, unassigned) [Example 44, 5-[-5-(Cyclopropylamino)-1,2,3,3a,4,5,6,6a-octahydropentalen-2-yl]-N-(3-chloro-4-fluorophenyl)-3-methyl-4-imidazolecarboxamide]
[1]
  EC50: 10 to 50 nM

## Cn1cnc(C2CC3CC(NC4CC4)CC3C2)c1C(=O)Nc1ccc(F)c(Cl)c1 (single isomer, unassigned) [Example 45, 5-[-5-(Cyclopropylamino)-1,2,3,3a,4,5,6,6a-octahydropentalen-2-yl]-N-(3-chloro-4-fluorophenyl)-3-methyl-4-imidazolecarboxamide]
  EC50: 10 to 50 nM

## Cn1cnc(C2CC3CC(O)(c4cc([N+](=O)[O-])nn4C)CC3C2)c1C(=O)Nc1ccc(F)c(Cl)c1 (single isomer, unassigned) [Example 50, N-(3-Chloro-4-fluorophenyl)-4-(5-hydroxy-5-(1-methyl-3-nitro-1H-pyrazol-5-yl)octahydropentalen-2-yl)-1-methyl-1H-imidazole-5-carboxamide]
[1]
  EC50: < 10 nM

## CC(CO)Oc1cc(C2(O)CC3CC(c4ncn(C)c4C(=O)Nc4ccc(F)c(Cl)c4)CC3C2)n(C)n1 (single isomer, unassigned) [Example 68, N-(3-Chloro-4-fluorophenyl)-4-(5-hydroxy-5-(3-((1-hydroxypropan-2-yl)oxy)-1-methyl-1H-pyrazol-5-yl)octahydropentalen-2-yl)-1-methyl-1H-imidazole-5-carboxamide]
[1]
  EC50: < 10 nM

## CC(CO)Oc1cc(C2(O)CC3CC(c4ncn(C)c4C(=O)Nc4ccc(F)c(Cl)c4)CC3C2)n(C)n1 (single isomer, unassigned) [Example 69, N-(3-Chloro-4-fluorophenyl)-4-(5-hydroxy-5-(3-((1-hydroxypropan-2-yl)oxy)-1-methyl-1H-pyrazol-5-yl)octahydropentalen-2-yl)-1-methyl-1H-imidazole-5-carboxamide]
  EC50: 10 to 50 nM

## CN(C)Cc1cnn(C)c1C1(O)CC2CC(c3ncn(C)c3C(=O)Nc3ccc(F)c(Cl)c3)CC2C1 (single isomer, unassigned) [Example 70, N-(3-Chloro-4-fluorophenyl)-4-(5-(4-((dimethylamino)methyl)-1-methyl-1H-pyrazol-5-yl)-5-hydroxyoctahydropentalen-2-yl)-1-methyl-1H-imidazole-5-carboxamide]
[1]
  EC50: < 10 nM

## Cc1cc(C2(O)CC3CC(c4ncn(C)c4C(=O)Nc4ccc(F)c(Cl)c4)CC3C2)n(C)n1 (single isomer, unassigned) [Example 71, N-(3-Chloro-4-fluorophenyl)-4-(5-(1,3-dimethyl-1H-pyrazol-5-yl)-5-hydroxyoctahydropentalen-2-yl)-1-methyl-1H-imidazole-5-carboxamide]
[1]
  EC50: < 10 nM

## Cn1cnc(C2CC3CC(O)(c4cc(C(F)(F)F)nn4C)CC3C2)c1C(=O)Nc1ccc(F)c(Cl)c1 (single isomer, unassigned) [Example 72, N-(3-Chloro-4-fluorophenyl)-4-(5-hydroxy-5-(1-methyl-3-(trifluoromethyl)-1H-pyrazol-5-yl)octahydropentalen-2-yl)-1-methyl-1H-imidazole-5-carboxamide]
[1]
  EC50: < 10 nM
